Measured values from patent US11344614B2, “Pharmaceutical compositions comprising dengue virus-specific multiple HLA-binding T cell epitopes” (priority 2018, dated 2022).
Peptide text beside a SMILES is read from it.

System: CD8+ T cells
Conditions: healthy seronegative HLA-A2 donor CTLs, peptide pulsed or DENV-2 infected JY cells, FIG. 1; for secretion of granzyme B (cytotoxic activity): supernatant
Text: FIG. 1. […] (A.) HLA-A2 restricted CTLs directed against the peptides (peptides are represented as first 3 residues of the sequence) were generated using peripheral blood from a seronegative donor. PBMCs containing the epitope specific CTLs were harvested, washed, and cultured with the peptide […] cells overnight in an IFN-gamma ELISpot assay. (B). Identical cultures were set up as in (A) but in 96 well round bottom plates. The next day, supernatant was harvested and used to detect cytolytic activity (B) and the cells were analyzed for the marker of degranulation, CD107a (C.)
Epitope specific CD8^+ T cells (CTLs) were generated as previously described. […] Two hours after pulsing, the non-adherent cells were added back into the plates in a cytokine rich medium of RPMI-1640 supplemented with IL-7 (5 ng/mL), GM-CSF (25 ng/mL), IL-4 (50 ng/mL), and keyhole limpet hemocyanin (5 ug/mL KLH; Sigma-Aldrich) and cultured at 37° C. at 5% CO2. T cells in the culture were restimulated two weeks after the initial stimulation with autologous PBMCs depleted of CD4^+ and CD8^+ T cells and pulsed with synthetic peptides (10 ug/mL) and β2-microglobulin (1.5 ug/mL). Restimulated cells were cultured in RPMI-1640 supplemented with IL-15 (5 ng/mL), GM-CSF (12.5 ng/mL) and IL-2 (10 U/mL) for 7 days. Restimulation was performed a total of three times prior to CTL functional assays. Unless otherwise specified, all cytokines and growth factors were purchased from eBiosciences (San Diego, Calif.).

SMILES	degranulation marker CD107a (cytotoxic activity)	secretion of granzyme B (cytotoxic activity)
CC[C@H](C)[C@H](NC(=O)[C@@H](NC(=O)[C@H](C)NC(=O)[C@H](CC(N)=O)NC(=O)[C@@H]1CCCN1C(=O)[C@@H](NC(=O)[C@H](CS)NC(=O)[C@H](CC(C)C)NC(=O)[C@H](CCSC)NC(=O)[C@H](C)N)[C@@H](C)CC)[C@@H](C)CC)C(=O)O [AML] (H-AMLCIPNAII-OH; N-terminus and C-terminus assumed)	upregulation of the degranulation marker CD107a	secretion
CC[C@H](C)[C@H](NC(=O)[C@@H](NC(=O)[C@@H](N)CCSC)[C@@H](C)CC)C(=O)N[C@H](C(=O)N[C@@H](CC(=O)O)C(=O)N[C@@H](CCC(=O)O)C(=O)N[C@@H](C)C(=O)N[C@@H](Cc1c[nH]cn1)C(=O)N[C@@H](Cc1ccccc1)C(=O)O)C(C)C [MII] (H-MIIVDEAHF-OH; N-terminus and C-terminus assumed)	upregulation of the degranulation marker CD107a	secretion
CC[C@H](C)[C@H](NC(=O)[C@H](Cc1ccccc1)NC(=O)[C@H](C)N)C(=O)N[C@@H](C)C(=O)N[C@@H](Cc1ccccc1)C(=O)N[C@H](C(=O)N[C@@H](CCCNC(=N)N)C(=O)N[C@@H](Cc1ccccc1)C(=O)O)C(C)C [AFI] (H-AFIAFVRF-OH; N-terminus and C-terminus assumed)	upregulation of the degranulation marker CD107a	secretion
CC[C@H](C)[C@H](NC(=O)[C@H](CCSC)NC(=O)[C@@H](NC(=O)[C@H](CC(N)=O)NC(=O)[C@@H]1CCCN1C(=O)[C@@H](NC(=O)[C@H](CS)NC(=O)[C@H](CC(C)C)NC(=O)[C@@H](N)CC(C)C)C(C)C)[C@@H](C)CC)C(=O)O [LLC] (H-LLCVPNIMI-OH; N-terminus and C-terminus assumed)	upregulation of the degranulation marker CD107a	secretion
